Earlier results in US6617356B2, “Gel system for oral and topical administration of water insoluble and/or water intolerant drugs and supplements” (priority 2000, dated 2003).

Conditions: oral, 20 grams creatine monohydrate per day for five days

For `CN(CC(=O)O)C(=N)N.O` [creatine monohydrate], the “Muscle total creatine concentration” value is listed as “increase” and the “Peak and total work production” value is listed as “cumulative increase”.
